Measurements reported in patent US11478496B2, “Treatments of prostate cancer” (THE FLORIDA INTERNATIONAL UNIVERSITY BOARD OF TRUSTEES, priority 2020, dated 2022).

Assays:
[1] = system: BER reconstituted with purified Pol β, FEN1, and LIG I; assay: Secondary gel-based BER assay reconstituted with purified core BER enzymes; type: biochemical; conditions: 10 μM compound, THF substrate
Experimental: The secondary screening assay was performed as described below in the “Materials and Methods” section. Lane 1 represents the substrate only. Lane 2 indicates the reaction mixture with 5 nM APE1. Lanes 3 and 4 correspond to the reaction mixture with 5 nM APE1, 10 nM pol β, 10 nM FEN1 and 20 nM LIG I in the absence and presence of dimethylsulfoxide (DMSO). Lanes 5 through 19 correspond to the reaction mixture with 5 nM APE1, 10 nM pol β, 10 nM FEN1 and 20 nM LIG I in the presence of indicated compounds. The experiments were repeated at least three times. A representative gel is illustrated.
The hit compounds were subject to secondary assays to determine their ability to reduce the BER capacity when reconstituted with purified core BER enzymes, as well as their inhibitory effects on individual BER enzymes including pol FEN1 and LIG I. The effect of hit compounds on BER capacity and BER enzymes was examined using a denaturing sequencing gel-based assay. 10 μM hit compounds were incubated with 10 nM pol β, 10 nM FEN1 and 20 nM LIG I in BER reaction buffer containing 50 mM Tris-HCl (pH 7.5), 50 mM KCl, 0.1 mM EDTA, 0.1 mg/ml bovine serum albumin, and 0.01% Nonidet P-40 in the presence of 5 mM Mg^2+ and 2 mM ATP. The compounds were initially preincubated with a BER enzyme at varying concentrations for 1 h with rotation. This was followed by the addition of 25 nM ^32P-labeled substrate containing an abasic site, which was precut with 25 or 50 nM APEI. The reaction mixture (20 μL) was incubated at 37° C. for 30 min, and the reaction was terminated by 50 mM EDTA. Substrates, products, and unrepaired BER intermediates were separated by 15% urea-denaturing sequencing gel and detected by a Pharos FX Plus PhosphorImager (Bio-Rad, Hercules, Calif.).
Among the 26 identified compounds, nine were DNA intercalators or inhibitors of human DNA topoisomerases and were excluded from further studies. Thus, […] FDA approved drugs were selected for further testing. To further confirm the inhibitory effects of the lead compounds on BER, the effects of the compounds on BER reactions reconstituted with purified BER core enzymes were initially determined.

[2] = system: RWPE1 cells; assay: RTCA impedance proliferation assay, RWPE1; type: cell-based; conditions: 10 μM; serum free medium
Experimental: (6A-6B) PNT1A cells were plated onto xCelligence E-plates at 5×10^4 cells per well in media supplemented with 10% FBS (6A) or CSS (6B). Cells were allowed to attach overnight and treated with vehicle (DMSO) or 10 μM of indicated compounds. Cellular impedance was monitored continuously with 30 min intervals. (6C) RWPE1 cells were plated at 5×10^4 cells per well in serum free medium supplemented with Epidermal Growth Factor (EGF) and Bovine Pituitary Extract ([…]) onto E-plates and treated with 10 μM of indicated compounds as indicated. […] Proliferation assays were done using Roche DP Real Time Cell Analyzer (RTCA), as described by the manufacturer. Background impedance was established after incubating E-plates (Acea Biosciences, San Diego, Calif.) with 50 μL media at room temperature for 30 min and placed in RTCA. Cells were then seeded in 100 μL per well. Cells attached overnight and then treated. During attachment stage and after treatment impedance was measured every 30 min. Impedance is represented by cell index and is calculated as follows: CI=(Zi−Zo)/15Ω where Zi is impedance at an individual time point, and Zo is the background impedance. Average CI was calculated from four wells per treatment at each time point and normalized to the impedance immediately after compound addition.

[3] = system: RWPE1 cells; assay: Cell Titer Glo cell viability assay, RWPE1; type: cell-based; conditions: 10 μM; after 24 h and 48 h; serum free medium with EGF and BPE
Experimental: FIGS. 4A-4B show cellular toxicity of lead compounds in nonmalignant androgen independent prostate-derived cell lines. (4A) PNT1A cells were plated in a 96-well plate at 1×10^4 cell/well in the presence of FBS or CSS. Cells were allowed to attach overnight and were treated with either vehicle (DMSO) or 10 μM of indicated compound. At 24 and 48 h, cellular viability was compared using the Cell Titer Glo Luminescent Cell Viability kit. (4B) RWPE1 cells were plated in a 96-well plate at 1×10^4 cells/well using the specified serum free media. Cells were allowed to attach overnight and treated with 10 μM of indicated compound.
Cell viability was determined using the Cell Titer Glo Cell Viability Assay (Promega, Madison, Wis.), as recommended by manufacturer. All experiments were performed in quadruplicate.
Next, whether the same concentration of compounds decreases the viability of the AR negative and nonmalignant prostate derived cells, PNT1A and RWPE1, was tested.

| BER capacity and production of the BER repair product [1] | SMILES | RWPE1 proliferation [2] | RWPE1 cell viability [3] |
| --- | --- | --- | --- |
| significantly reduced BER capacity | CC(C)(O/N=C(\C(=O)N[C@@H]1C(=O)N2C(C(=O)[O-])=C(C[n+]3ccccc3)CS[C@H]12)c1csc(N)n1)C(=O)O [ceftazidime] | – | – |
| significantly reduced BER capacity | C=C1/C(=C\C=C2/CCC[C@]3(C)[C@@H]([C@H](C)/C=C/[C@@H](O)C4CC4)CC[C@@H]23)C[C@@H](O)C[C@@H]1O [calcipotriene] | slightly inhibited | significantly decreased |
| significantly reduced BER capacity | CC(=O)Oc1cc2c(s1)CCN(C(C(=O)C1CC1)c1ccccc1F)C2 (stereo not shown) [prasugrel] | – | significantly decreased |

| SMILES | BER capacity and production of the BER repair product [1] | RWPE1 proliferation [2] | RWPE1 cell viability [3] |
| --- | --- | --- | --- |
| C[C@@H]1[C@H](O)[C@@H](C)/C=C/C=C/CC/C=C/C=C/C=C/C=C/C(O[C@H]2O[C@H](C)[C@@H](O)[C@H](N)[C@@H]2O)CC2O[C@](O)(CC(O)C(O)CCC(O)CC(O)CC(O)CC(=O)O[C@H]1C)CC(O)C2C(=O)O (stereo partly shown) [nystatin] | significantly reduced BER capacity | – | – |
